Row | SMILES | Total Zinc Conc. (at use level in formula) [%] | Solubility (g/100 g H2O, 25° C.) (25° C.) [g/100 g H2O] | Calculated Soluble Zinc (at use level in formula) [%]
1 | [O]=[Zn] [ZnO, zinc oxide] | 0.80 |  | 
2 | [Cl-].[Cl-].[Zn+2] [ZnCl2, zinc chloride] | 0.72 | 408 | 0.72
